Earlier results, collected in patent US20060141037A1, “Bilayer tablets of oxcarbazepine for controlled delivery and a process of preparation thereof” (J. B. Chemicals & Pharmaceuticals Ltd., priority 2004, published 2006).

Columns and labels:
[1] = test system: animal models; settings: comparable to that of carbamazepine and phenytoin
[2] = test system: voltage-sensitive sodium channels; settings: in vitro electrophysiological studies

In the case of `NC(=O)N1c2ccccc2CC(O)c2ccccc21` (centres unmarked) [MHD, 10,11-dihydro-10-hydro-carbamazepine], the “antiepileptic activity in animal models” value [1] is listed as “potent antiepileptic activity” and the “effect on voltage-sensitive sodium channels” value [2] is listed as “blockade of voltage-sensitive sodium channels”.

In the case of `NC(=O)N1c2ccccc2CC(=O)c2ccccc21` [Oxcarbazepine, 10,11-dihydro-10-oxo-5H-dibenz[b,f]azepine-5-carboxamide], the “antiepileptic activity in animal models” value [1] is given as “potent antiepileptic activity”, the “effect on voltage-sensitive sodium channels” value [2] is given as “blockade of voltage-sensitive sodium channels” and the solubility in water is given as “practically insoluble in water”.
